In patent US20250214942A1, “INHIBITORS OF RECEPTOR INTERACTING PROTEIN KINASE I FOR THE TREATMENT OF DISEASE” (Board of Regents, The University of Texas System, priority 2019, published 2025) one finds IC50 data, which are given here for 27 molecules.

The IC50 is the concentration that gives 50% inhibition.

The first test relates to human monocytic cell line U937. Description: Human U937 cellular necroptosis assay (TNFalpha + z-VAD-FMK, Cell Titer-Glo viability). It is filed as cell-based. The conditions noted are these: Homo sapiens, U-937, 22 h, U937 cells, 25 ng/mL human TNFalpha + 25 μM z-VAD-FMK, read-out: hU937 Avg IC50. Here is the method:
The human monocytic cell line U937 (CRL-1593.2) was purchased from ATCC. The cells were routinely maintained in RPMI-1640 Medium (Gibco, Catalog #11875-093) supplemented with 10% heat inactivated fetal bovine serum (Gibco, Catalog #16140-071), 100 units/mL penicillin and 100 μg/mL streptomycin (Gibco, Catalog #15140-122), in a humidified incubator (37° C., 5% CO2). For the assay, cells were resuspended in RPMI-1640 phenol red free Media (Gibco, Catalog #11835-030) supplemented with 10% fetal bovine serum (Sigma, Catalog #F2442), 100 units/mL penicillin and 100 ug/mL streptomycin. Cells were stimulated with 25 ng/mL human TNFalpha (Cell Sciences, Catalog #CSI15659B) and 25 μM z-VAD-FMK (R&D Systems, Catalog #FMK001) followed by seeding 5000 cells per well in a volume of 40 μL to a white, CulturPlate-384 (Perkin Elmer, Catalog #6007680). Stock solutions of the test compounds were prepared in 100% DMSO (Sigma, Catalog #D2650) and serially diluted 1:3 using 100% DMSO. Compounds were additionally diluted 1:40 in assay medium, and 10 μL/well was transferred to the plate. Following the compound addition the plate was incubated at 37° C. and 5% CO2 for 22 h. After 22 h, viability was assessed with the addition of 20 μL of Cell Titer-Glo 2.0 (Promega, Catalog #G9243). The tissue culture plate was shaken on an orbital shaker at 300 RPM for 15 minutes at rt in the dark. Luminescence was measured using a PerkinElmer Envision™ plate reader. IC50 values were calculated using a four-parameter logistic curve fit using Genedata Screener software. Results are shown below in Table 3, where the average value across multiple runs is given.
A general note: In ATP-based viability assays light output follows the ATP content of the culture.
In the case of `N#Cc1ccc(OCC23CC(C(=O)N4N=CCC4c4cncc(F)c4)(C2)C3)nc1` (stereo not drawn) [Example 285, 6-((3-(5-(5-fluoropyridin-3-yl)-4,5-dihydro-1H-pyrazole-1-carbonyl)bicyclo[1.1.1]-pentan-1-yl)methoxy)-nicotinonitrile], the IC50 amounted to 164 nM.
In the case of `N#Cc1ccc2c(cnn2CC23CC(C(=O)N4N=CCC4c4cc(F)c(C5CC5)c(F)c4)(C2)C3)c1` (stereo not drawn) [Example 340, 1-((3-(5-(4-cyclopropyl-3,5-difluorophenyl)-4,5-dihydro-1H-pyrazole-1-carbonyl)-bicyclo[1.1.1]pentan-1-yl)-methyl)-1H-indazole-5-carbonitrile], the IC50 came out at 54 nM.
For `N#Cc1ccc(OCC23CC(C(=O)N4N=CCC4c4cc(F)ccc4F)(C2)C3)nc1` (stereo not drawn) [Example 308, 6-((3-(5-(2,5-difluorophenyl)-4,5-dihydro-1H-pyrazole-1-carbonyl)bicyclo[1.1.1]pentan-1-yl)methoxy)nicotinonitrile], the IC50 is 11 nM.
Consider `N#Cc1ccc(OCC23CC(C(=O)N4N=CCC4c4cccc(C#N)c4)(C2)C3)nc1` (stereo not drawn) [Example 281, 6-((3-(5-(3-cyanophenyl)-4,5-dihydro-1H-pyrazole-1-carbonyl)bicyclo[1.1.1]pentan-1-yl)methoxy)nicotinonitrile], for which the IC50 was determined as 148 nM.
On to `N#Cc1cnc(OCC23CC(C(=O)N4N=CCC4c4cc(F)ccc4F)(C2)C3)cn1` (stereo not drawn) [Example 268, 5-((3-(5-(2,5-difluorophenyl)-4,5-dihydro-1H-pyrazole-1-carbonyl)bicyclo[1.1.1]pentan-1-yl)methoxy)pyrazine-2-carbonitrile], for which the IC50 amounted to 3.9 nM.
For `N#Cc1nc(C2CC2)n(CC23CC(C(=O)N4N=CCC4c4cc(F)cc(F)c4)(C2)C3)n1` (stereo not drawn) [Example 221, 5-cyclopropyl-1-((3-(5-(3,5-difluorophenyl)-4,5-dihydro-1H-pyrazole-1-carbonyl)-bicyclo[1.1.1]pentan-1-yl)-methyl)-1H-1,2,4-triazole-3-carbonitrile], the IC50 turned out to be 992 nM.
Same read-out and setting: the result for `N#Cc1cnc(OCC23CC(C(=O)N4N=CCC4c4ccc(Cl)cc4)(C2)C3)cn1` (stereo not drawn) [Example 310, 5-((3-(5-(4-chlorophenyl)-4,5-dihydro-1H-pyrazole-1-carbonyl)bicyclo[1.1.1]pentan-1-yl)methoxy)pyrazine-2-carbonitrile] reads 22 nM.
For the molecule `N#Cc1cnc(OCC23CC(C(=O)NCc4cc(F)ccc4F)(C2)C3)cn1` [Example 298, 3-(((5-cyanopyrazin-2-yl)oxy)-methyl)-N-(2,5-difluoro-benzyl)bicyclo[1.1.1]pentane-1-carboxamide], the IC50 was found to be 6700 nM.
Turning to `N#Cc1ccc(OCC23CC(C(=O)N4N=CCC4c4ncccc4F)(C2)C3)nc1` (stereo not drawn) [Example 303, 6-((3-(5-(3-fluoropyridin-2-yl)-4,5-dihydro-1H-pyrazole-1-carbonyl)bicyclo[1.1.1]-pentan-1-yl)methoxy)-nicotinonitrile], the IC50 was 500 nM.
Turning to `N#Cc1cnc(OCC23CC(C(=O)N4N=CCC4c4ccccc4Cl)(C2)C3)cn1` (stereo not drawn) [Example 318, 5-((3-(5-(2-chlorophenyl)-4,5-dihydro-1H-pyrazole-1-carbonyl)bicyclo[1.1.1]pentan-1-yl)methoxy)pyrazine-2-carbonitrile], the IC50 is 55 nM.
Consider `Cc1cccc(C2CC=NN2C(=O)C23CC(COc4ccc(C#N)cn4)(C2)C3)c1` (stereo not drawn) [Example 279, 6-((3-(5-(m-tolyl)-4,5-dihydro-1H-pyrazole-1-carbonyl)-bicyclo[1.1.1]pentan-1-yl)-methoxy)nicotinonitrile], for which the IC50 is 104 nM.
On to `N#Cc1cnc(OCC23CC(C(=O)N4N=CCC4c4cc(F)cc(F)c4)(C2)C3)nc1` (stereo not drawn) [Example 324, 2-((3-(5-(3,5-difluorophenyl)-4,5-dihydro-1H-pyrazole-1-carbonyl)bicyclo[1.1.1]pentan-1-yl)methoxy)pyrimidine-5-carbonitrile], for which the IC50 was 166 nM.
On to `CC(c1cc(F)ccc1F)N(C)C(=O)C12CC(COc3cnc(C#N)cn3)(C1)C2` (stereo not drawn) [Example 301, 3-(((5-cyanopyrazin-2-yl)oxy)-methyl)-N-(1-(2,5-difluoro-phenyl)ethyl)-N-methyl-bicyclo[1.1.1]pentane-1-carboxamide], for which the IC50 turned out to be 7740 nM.
Regarding `C[C@H](NC(=O)C12CC(Cn3ncc4cc(C#N)ccc43)(C1)C2)c1c(F)cccc1Cl` [Example 256, (S)-N-(1-(2-chloro-6-fluoro-phenyl)ethyl)-3-((5-cyano-1H-indazol-1-yl)methyl)bicyclo-[1.1.1]pentane-1-carboxamide], the IC50 was 895 nM.
With `N#Cc1ccc(OCC23CC(C(=O)N4N=CCC4c4cccc(F)c4F)(C2)C3)nc1` (stereo not drawn) [Example 270, 6-((3-(5-(2,3-difluorophenyl)-4,5-dihydro-1H-pyrazole-1-carbonyl)bicyclo[1.1.1]pentan-1-yl)methoxy)nicotinonitrile], the concentration for half-maximal inhibition (IC50) came out at 16 nM.
Consider `Cc1c(F)cc([C@@H]2CC=NN2C(=O)C23CC(COc4ccc(C#N)cn4)(C2)C3)cc1F` [Example 265, (S)-6-((3-(5-(3,5-difluoro-4-methylphenyl)-4,5-dihydro-1H-pyrazole-1-carbonyl)-bicyclo[1.1.1]pentan-1-yl)-methoxy)nicotinonitrile], for which the IC50 turned out to be 8.3 nM.
For `COc1ccc2c(cnn2CC23CC(C(=O)N4N=CCC4c4cc(F)cc(F)c4)(C2)C3)n1` (stereo not drawn) [Example 215, (5-(3,5-difluorophenyl)-4,5-dihydro-1H-pyrazol-1-yl)(3-((5-methoxy-1H-pyrazolo[4,3-b]pyridin-1-yl)methyl)bicyclo-[1.1.1]pentan-1-yl)methanone], the IC50 turned out to be 80 nM.
Same read-out and setting: to `CN(C(=O)C12CC(Cn3ncc4cc(C#N)ccc43)(C1)C2)c1ccccc1Cl` [Example 299, N-(2-chlorophenyl)-3-((5-cyano-1H-indazol-1-yl)-methyl)-N-methylbicyclo-[1.1.1]pentane-1-carboxamide] belongs 7010 nM; to `Cc1cnc(C2CC=NN2C(=O)C23CC(COc4ccc(C#N)cn4)(C2)C3)cn1` (stereo not drawn) [Example 282, 6-((3-(5-(5-methylpyrazin-2-yl)-4,5-dihydro-1H-pyrazole-1-carbonyl)bicyclo[1.1.1]-pentan-1-yl)methoxy)-nicotinonitrile], 153 nM.
On to `N#Cc1ccc2nn(CC34CC(C(=O)N5N=CCC5c5cncc(F)c5)(C3)C4)cc2c1` (stereo not drawn) [Example 127, 2-((3-(5-(5-fluoropyridin-3-yl)-4,5-dihydro-1H-pyrazole-1-carbonyl)bicyclo[1.1.1]-pentan-1-yl)methyl)-2H-indazole-5-carbonitrile], for which the IC50 was 1260 nM.
In the case of `Cc1cc(F)c(C2CC=NN2C(=O)C23CC(COc4ccc(C#N)cn4)(C2)C3)cc1F` (stereo not drawn) [Example 305, 6-((3-(5-(2,5-difluoro-4-methylphenyl)-4,5-dihydro-1H-pyrazole-1-carbonyl)-bicyclo[1.1.1]pentan-1-yl)-methoxy)nicotinonitrile], the concentration for half-maximal inhibition (IC50) is 6.5 nM.
Regarding `Cc1cccc(C2CC=NN2C(=O)C23CC(Cn4ncc5cc(C#N)ccc54)(C2)C3)c1` (stereo not drawn) [Example 243, 1-((3-(5-(m-tolyl)-4,5-dihydro-1H-pyrazole-1-carbonyl)-bicyclo[1.1.1]pentan-1-yl)-methyl)-1H-indazole-5-carbonitrile], the IC50 stood at 31 nM.
Take `Cc1ccccc1C1CC=NN1C(=O)C12CC(COc3ccc(C#N)cn3)(C1)C2` (stereo not drawn) [Example 314, 6-((3-(5-(o-tolyl)-4,5-dihydro-1H-pyrazole-1-carbonyl)-bicyclo[1.1.1]pentan-1-yl)-methoxy)nicotinonitrile]: the IC50 was 475 nM.
Consider `N#Cc1cnc(OCC23CC(C(=O)N4[C@@H]5C[C@@H]5C[C@H]4c4cc(F)cc(F)c4)(C2)C3)cn1` [Example 209, 5-((3-((1R,3S,5R)-3-(3,5-difluorophenyl)-2-azabicyclo[3.1.0]hexane-2-carbonyl)bicyclo[1.1.1]pentan-1-yl)methoxy)pyrazine-2-carbonitrile], for which the concentration for half-maximal inhibition (IC50) was 362 nM.
As to `N#Cc1cnc(OCC23CC(C(=O)N4N=CCC4c4cncc(F)c4)(C2)C3)cn1` (stereo not drawn) [Example 277, 5-((3-(5-(5-fluoropyridin-3-yl)-4,5-dihydro-1H-pyrazole-1-carbonyl)bicyclo[1.1.1]-pentan-1-yl)methoxy)pyrazine-2-carbonitrile], the IC50 was found to be 81 nM.

The same test, now with this note: U937 cells, 25 ng/mL human TNFalpha + 25 μM z-VAD-FMK, 22 h; read-out: hU937 Avg IC50.
As to `N#Cc1cnc(OCC23CC(C(=O)NCc4ccccc4F)(C2)C3)cn1` [Example 300, 3-(((5-cyanopyrazin-2-yl)-oxy)methyl)-N-(2-fluoro-benzyl)bicyclo[1.1.1]pentane-1-carboxamide], the IC50 was found to be 7420 nM.
`N#Cc1cnc(OCC23CC(C(=O)NCc4ccccc4F)(C2)C3)cn1` [Example 293, 3-(((5-cyanopyrazin-2-yl)oxy)-methyl)-N-(2-fluorobenzyl)-bicyclo[1.1.1]pentane-1-carboxamide]: the half-maximal inhibitory concentration (IC50) came to 1500 nM.
